Data taken from the kinase profiling compilation of Christmann-Franck et al. (2016).

How the values were obtained:
Experiment in all cases: radiometric filter-binding kinase assay, Kinase HotSpot
Details in all cases: compound 0.5 µM; ATP 10 µM
[1] = system: FLT4 (human), P35916 [Q890H]
DYRK2 (human) = DYRK2 (human) (UniProt Q92630)
STK25 (human) = STK25 (human) (UniProt O00506)
NUAK1 (human) = NUAK1 (human) (UniProt O60285)
[2] = biological target: TYK2 JH1 catalytic (human) (UniProt P29597)
CAMK2B (human) = CAMK2B (human) (UniProt Q13554)
WNK2 (human) = WNK2 (human) (UniProt Q9Y3S1)
PTK2B (human) = PTK2B (human) (UniProt Q14289)
MAP3K5 (human) = MAP3K5 (human) (UniProt Q99683)
PHKG1 (human) = PHKG1 (human) (UniProt Q16816)
AKT1 (human) = AKT1 (human) (UniProt P31749)
PAK7 (human) = PAK7 (human) (UniProt Q9P286)
STK10 (human) = STK10 (human) (UniProt O94804)
MAPK8 (human) = MAPK8 (human) (UniProt P45983)
FGFR1 (human) = FGFR1 (human) (UniProt P11362)
CLK1 (human) = CLK1 (human) (UniProt P49759)
DSTYK (human) = DSTYK (human) (UniProt Q6XUX3)
NEK11 (human) = NEK11 (human) (UniProt Q8NG66)
GRK7 (human) = GRK7 (human) (UniProt Q8WTQ7)
RPS6KA6 KD1 KD2 (human) = RPS6KA6 KD1 KD2 (human) (UniProt Q9UK32)
PAK4 (human) = PAK4 (human) (UniProt O96013)
MAP4K5 (human) = MAP4K5 (human) (UniProt Q9Y4K4)
ITK (human) = ITK (human) (UniProt Q08881)
FGFR3 (human) = FGFR3 (human) (UniProt P22607)
DYRK4 (human) = DYRK4 (human) (UniProt Q9NR20)
MAPK14 (human) = MAPK14 (human) (UniProt Q16539)
ZAP70 (human) = ZAP70 (human) (UniProt P43403)
CAMK2A (human) = CAMK2A (human) (UniProt Q9UQM7)
ABL2 (human) = ABL2 (human) (UniProt P42684)
ACVRL1 (human) = ACVRL1 (human) (UniProt P37023)
NEK2 (human) = NEK2 (human) (UniProt P51955)
FYN (human) = FYN (human) (UniProt P06241)
MINK1 (human) = MINK1 (human) (UniProt Q8N4C8)
STK24 (human) = STK24 (human) (UniProt Q9Y6E0)
CDK2 CCNA2 (human) = CDK2 CCNA2 (human) (UniProt P24941+P20248)
MAPK3 (human) = MAPK3 (human) (UniProt P27361)
ROCK2 (human) = ROCK2 (human) (UniProt O75116)
FRK (human) = FRK (human) (UniProt P42685)
STK11 (human) = STK11 (human) (UniProt Q15831)
BRSK1 (human) = BRSK1 (human) (UniProt Q8TDC3)
[3] = system: MAP2K6 (human), P52564 [S207E/T211E]
MERTK (human) = MERTK (human) (UniProt Q12866)

BRSK1 (human), sequence (Q8TDC3 whole entry, looked up): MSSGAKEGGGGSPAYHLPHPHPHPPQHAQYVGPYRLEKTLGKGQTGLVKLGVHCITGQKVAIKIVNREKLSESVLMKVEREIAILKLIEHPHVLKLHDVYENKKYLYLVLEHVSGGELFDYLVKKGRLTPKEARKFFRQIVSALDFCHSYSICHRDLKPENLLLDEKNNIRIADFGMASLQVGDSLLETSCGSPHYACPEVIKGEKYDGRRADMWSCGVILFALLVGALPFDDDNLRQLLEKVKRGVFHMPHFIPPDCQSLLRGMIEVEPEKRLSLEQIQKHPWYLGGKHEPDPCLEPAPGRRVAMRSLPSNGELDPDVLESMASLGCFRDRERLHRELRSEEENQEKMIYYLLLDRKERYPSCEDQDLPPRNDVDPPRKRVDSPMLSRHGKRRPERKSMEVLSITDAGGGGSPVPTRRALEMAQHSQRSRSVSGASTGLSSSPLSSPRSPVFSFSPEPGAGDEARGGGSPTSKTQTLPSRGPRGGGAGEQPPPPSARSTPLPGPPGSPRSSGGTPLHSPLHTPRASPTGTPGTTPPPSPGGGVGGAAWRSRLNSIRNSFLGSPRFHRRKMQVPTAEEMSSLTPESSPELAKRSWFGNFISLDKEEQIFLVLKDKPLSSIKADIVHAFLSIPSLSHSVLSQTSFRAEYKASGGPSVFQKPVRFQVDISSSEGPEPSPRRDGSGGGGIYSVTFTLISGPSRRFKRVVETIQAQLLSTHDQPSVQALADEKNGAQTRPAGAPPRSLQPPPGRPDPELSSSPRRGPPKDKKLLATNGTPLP
ZAP70 (human), sequence (P43403 whole entry, looked up): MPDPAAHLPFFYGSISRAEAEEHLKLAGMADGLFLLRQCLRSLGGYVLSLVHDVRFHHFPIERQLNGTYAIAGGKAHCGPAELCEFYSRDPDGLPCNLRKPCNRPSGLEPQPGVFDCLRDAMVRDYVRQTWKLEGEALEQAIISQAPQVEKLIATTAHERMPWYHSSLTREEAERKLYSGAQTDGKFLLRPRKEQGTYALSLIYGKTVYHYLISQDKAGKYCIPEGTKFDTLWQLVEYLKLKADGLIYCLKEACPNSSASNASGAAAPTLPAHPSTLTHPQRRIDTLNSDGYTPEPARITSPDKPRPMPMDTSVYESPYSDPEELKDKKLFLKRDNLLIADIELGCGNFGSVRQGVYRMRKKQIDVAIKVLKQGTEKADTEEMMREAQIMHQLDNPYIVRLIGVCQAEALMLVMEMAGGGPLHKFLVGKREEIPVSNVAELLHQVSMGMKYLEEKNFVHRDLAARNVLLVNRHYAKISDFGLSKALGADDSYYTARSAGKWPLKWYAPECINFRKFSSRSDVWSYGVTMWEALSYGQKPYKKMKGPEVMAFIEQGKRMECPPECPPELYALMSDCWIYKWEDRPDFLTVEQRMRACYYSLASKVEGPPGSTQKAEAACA
NUAK1 (human), sequence (O60285 whole entry, looked up): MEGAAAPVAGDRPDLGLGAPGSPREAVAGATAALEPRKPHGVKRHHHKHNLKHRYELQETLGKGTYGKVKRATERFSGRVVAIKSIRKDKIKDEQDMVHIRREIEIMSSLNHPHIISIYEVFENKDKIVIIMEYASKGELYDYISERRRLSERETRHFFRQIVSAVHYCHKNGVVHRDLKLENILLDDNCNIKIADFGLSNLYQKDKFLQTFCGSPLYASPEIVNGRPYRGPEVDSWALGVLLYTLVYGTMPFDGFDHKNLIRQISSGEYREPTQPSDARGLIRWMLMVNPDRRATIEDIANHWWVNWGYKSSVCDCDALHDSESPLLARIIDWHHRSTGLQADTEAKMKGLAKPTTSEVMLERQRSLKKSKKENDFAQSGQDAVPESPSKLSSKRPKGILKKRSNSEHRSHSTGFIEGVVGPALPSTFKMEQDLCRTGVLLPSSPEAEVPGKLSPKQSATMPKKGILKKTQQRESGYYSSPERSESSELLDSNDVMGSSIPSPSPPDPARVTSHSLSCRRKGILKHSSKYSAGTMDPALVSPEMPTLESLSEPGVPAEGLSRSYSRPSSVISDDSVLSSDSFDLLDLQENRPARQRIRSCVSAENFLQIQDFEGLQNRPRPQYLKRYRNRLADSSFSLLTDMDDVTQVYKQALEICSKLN
PTK2B (human), sequence (Q14289 whole entry, looked up): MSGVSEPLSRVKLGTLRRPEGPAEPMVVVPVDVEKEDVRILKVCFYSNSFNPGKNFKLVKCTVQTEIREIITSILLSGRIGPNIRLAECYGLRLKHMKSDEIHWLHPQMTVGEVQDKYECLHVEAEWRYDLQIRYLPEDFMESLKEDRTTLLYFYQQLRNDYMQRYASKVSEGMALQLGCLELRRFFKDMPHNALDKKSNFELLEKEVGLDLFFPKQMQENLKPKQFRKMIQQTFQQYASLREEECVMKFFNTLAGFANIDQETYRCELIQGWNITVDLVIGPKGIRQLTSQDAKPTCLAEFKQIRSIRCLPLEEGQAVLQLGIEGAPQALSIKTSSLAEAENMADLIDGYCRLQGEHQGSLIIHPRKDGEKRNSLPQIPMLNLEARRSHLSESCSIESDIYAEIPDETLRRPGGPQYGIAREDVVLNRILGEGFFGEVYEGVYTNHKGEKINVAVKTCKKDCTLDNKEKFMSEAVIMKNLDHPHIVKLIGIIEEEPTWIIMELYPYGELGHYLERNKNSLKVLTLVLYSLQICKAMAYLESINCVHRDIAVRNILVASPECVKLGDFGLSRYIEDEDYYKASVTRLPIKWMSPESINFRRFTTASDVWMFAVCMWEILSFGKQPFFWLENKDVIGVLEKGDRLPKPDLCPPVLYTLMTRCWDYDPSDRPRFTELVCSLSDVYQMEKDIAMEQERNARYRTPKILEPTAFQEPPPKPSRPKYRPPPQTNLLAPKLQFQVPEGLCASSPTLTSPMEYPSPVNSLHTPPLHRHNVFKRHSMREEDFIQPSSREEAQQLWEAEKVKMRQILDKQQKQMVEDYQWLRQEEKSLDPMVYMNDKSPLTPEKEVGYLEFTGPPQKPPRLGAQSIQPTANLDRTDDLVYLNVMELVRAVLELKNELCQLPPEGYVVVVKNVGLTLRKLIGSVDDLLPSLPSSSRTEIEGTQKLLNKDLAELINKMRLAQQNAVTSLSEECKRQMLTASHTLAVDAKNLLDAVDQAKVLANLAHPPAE
NEK11 (human), sequence (Q8NG66 whole entry, looked up): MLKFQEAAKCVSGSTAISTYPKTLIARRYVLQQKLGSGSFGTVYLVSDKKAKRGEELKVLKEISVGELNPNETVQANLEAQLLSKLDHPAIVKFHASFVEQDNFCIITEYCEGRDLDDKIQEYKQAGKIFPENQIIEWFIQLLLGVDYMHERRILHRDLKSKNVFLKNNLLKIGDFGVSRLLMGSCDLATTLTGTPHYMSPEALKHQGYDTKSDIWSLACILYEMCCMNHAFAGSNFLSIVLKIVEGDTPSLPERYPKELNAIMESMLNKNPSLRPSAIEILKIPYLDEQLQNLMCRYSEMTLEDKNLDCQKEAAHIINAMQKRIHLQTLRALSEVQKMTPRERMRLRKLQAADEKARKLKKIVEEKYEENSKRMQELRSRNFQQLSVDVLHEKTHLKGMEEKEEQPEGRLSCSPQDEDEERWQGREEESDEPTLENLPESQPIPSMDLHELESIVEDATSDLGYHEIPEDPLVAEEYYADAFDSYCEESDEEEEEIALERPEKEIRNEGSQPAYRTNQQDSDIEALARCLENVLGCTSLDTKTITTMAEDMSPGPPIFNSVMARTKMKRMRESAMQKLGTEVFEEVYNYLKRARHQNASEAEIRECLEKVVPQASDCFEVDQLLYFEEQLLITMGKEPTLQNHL
MAP3K5 (human), sequence (Q99683 whole entry, looked up): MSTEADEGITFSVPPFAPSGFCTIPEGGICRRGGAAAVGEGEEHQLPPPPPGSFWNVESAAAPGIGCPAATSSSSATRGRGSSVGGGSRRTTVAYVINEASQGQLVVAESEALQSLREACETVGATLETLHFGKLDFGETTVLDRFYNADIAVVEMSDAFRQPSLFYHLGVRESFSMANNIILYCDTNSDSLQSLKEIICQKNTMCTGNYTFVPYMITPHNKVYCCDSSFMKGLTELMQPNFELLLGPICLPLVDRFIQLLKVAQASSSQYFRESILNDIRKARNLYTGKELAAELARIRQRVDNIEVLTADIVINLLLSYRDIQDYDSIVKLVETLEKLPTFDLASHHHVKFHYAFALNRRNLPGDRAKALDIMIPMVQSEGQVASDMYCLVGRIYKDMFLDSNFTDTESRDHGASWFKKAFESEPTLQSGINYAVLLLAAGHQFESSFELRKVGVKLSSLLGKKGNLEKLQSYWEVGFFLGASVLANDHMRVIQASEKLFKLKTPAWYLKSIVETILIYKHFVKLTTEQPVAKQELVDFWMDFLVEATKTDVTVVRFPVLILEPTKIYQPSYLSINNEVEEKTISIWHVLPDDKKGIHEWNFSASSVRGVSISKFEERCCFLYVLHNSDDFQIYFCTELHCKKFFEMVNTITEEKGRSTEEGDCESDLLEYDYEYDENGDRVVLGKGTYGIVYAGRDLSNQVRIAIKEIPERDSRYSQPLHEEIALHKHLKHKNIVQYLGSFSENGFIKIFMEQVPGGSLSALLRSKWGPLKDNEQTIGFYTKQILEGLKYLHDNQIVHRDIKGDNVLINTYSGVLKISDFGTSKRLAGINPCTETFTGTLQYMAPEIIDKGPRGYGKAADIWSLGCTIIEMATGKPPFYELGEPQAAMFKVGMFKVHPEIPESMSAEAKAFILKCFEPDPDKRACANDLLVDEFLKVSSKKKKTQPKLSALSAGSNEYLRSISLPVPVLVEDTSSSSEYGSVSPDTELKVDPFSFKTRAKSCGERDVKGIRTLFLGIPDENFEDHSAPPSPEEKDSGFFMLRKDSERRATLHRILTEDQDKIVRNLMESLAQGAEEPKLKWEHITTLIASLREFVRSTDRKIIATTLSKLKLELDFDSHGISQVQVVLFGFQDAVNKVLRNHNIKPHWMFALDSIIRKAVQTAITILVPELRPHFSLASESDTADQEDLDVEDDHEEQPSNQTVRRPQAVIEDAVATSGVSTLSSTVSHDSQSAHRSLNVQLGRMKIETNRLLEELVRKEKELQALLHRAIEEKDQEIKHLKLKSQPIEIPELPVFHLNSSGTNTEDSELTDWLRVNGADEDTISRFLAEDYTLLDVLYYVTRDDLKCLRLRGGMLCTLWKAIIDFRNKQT

Work on `CN(C)c1ccc(/C=C2\C(=O)Nc3ccccc32)cc1` yielded a residual activity [1] of 98.8%, a residual activity (DYRK2 (human)) of 100% and a residual activity (STK25 (human)) of 90.2%. It also gave a residual activity (NUAK1 (human)) of 80.4%, a residual activity [2] of 103% and a residual activity (CAMK2B (human)) of 108%. The residual activity (WNK2 (human)) was 104%, the residual activity (PTK2B (human)) was 94.5% and the residual activity (MAP3K5 (human)) was 99.4%. The residual activity (PHKG1 (human)) was 99.1%, the residual activity (AKT1 (human)) was 101% and the residual activity (PAK7 (human)) was 101%. It also gave a residual activity (STK10 (human)) of 95.4%, a residual activity (MAPK8 (human)) of 103% and a residual activity (FGFR1 (human)) of 92%. It also gave a residual activity (CLK1 (human)) of 103%, a residual activity (DSTYK (human)) of 103% and a residual activity (NEK11 (human)) of 96.4%. For the same compound, the residual activity (GRK7 (human)) was 100%, the residual activity (RPS6KA6 KD1 KD2 (human)) was 93.9% and the residual activity (PAK4 (human)) was 101%. It also gave a residual activity (MAP4K5 (human)) of 84.5%, a residual activity (ITK (human)) of 99% and a residual activity (FGFR3 (human)) of 96.3%. For the same compound, the residual activity (DYRK4 (human)) was 94.8%, the residual activity (MAPK14 (human)) was 92.4% and the residual activity (ZAP70 (human)) was 89.9%. The residual activity (CAMK2A (human)) was 106%, the residual activity (ABL2 (human)) was 100% and the residual activity (ACVRL1 (human)) was 104%. For the same compound, the residual activity (NEK2 (human)) was 98.4%, the residual activity (FYN (human)) was 104% and the residual activity (MINK1 (human)) was 79%. For the same compound, the residual activity (STK24 (human)) was 96.7%, the residual activity (CDK2 CCNA2 (human)) was 102% and the residual activity (MAPK3 (human)) was 102%. It also gave a residual activity (ROCK2 (human)) of 95.2%, a residual activity (FRK (human)) of 102% and a residual activity (STK11 (human)) of 99.4%. It also gave a residual activity (BRSK1 (human)) of 99.6%, a residual activity [3] of 94.7% and a residual activity (MERTK (human)) of 92.7%.

For `COc1cc2ncnc(Nc3ccc(Oc4ccccc4)cc3)c2cc1OC`, the residual activity [1] was 62.5%, the residual activity (DYRK2 (human)) was 104% and the residual activity (STK25 (human)) was 109%. The residual activity (NUAK1 (human)) was 105%, the residual activity [2] was 107% and the residual activity (CAMK2B (human)) was 98.2%. It also gave a residual activity (WNK2 (human)) of 88.1%, a residual activity (PTK2B (human)) of 89% and a residual activity (MAP3K5 (human)) of 107%. For the same compound, the residual activity (PHKG1 (human)) was 91.8%, the residual activity (AKT1 (human)) was 107% and the residual activity (PAK7 (human)) was 103%. The residual activity (STK10 (human)) was 74%, the residual activity (MAPK8 (human)) was 91.8% and the residual activity (FGFR1 (human)) was 85%. The residual activity (CLK1 (human)) was 100%, the residual activity (DSTYK (human)) was 91.6% and the residual activity (NEK11 (human)) was 74.8%. The residual activity (GRK7 (human)) was 103%, the residual activity (RPS6KA6 KD1 KD2 (human)) was 111% and the residual activity (PAK4 (human)) was 98.3%. For the same compound, the residual activity (MAP4K5 (human)) was 70.6%, the residual activity (ITK (human)) was 93.6% and the residual activity (FGFR3 (human)) was 87.1%. It also gave a residual activity (DYRK4 (human)) of 97.3%, a residual activity (MAPK14 (human)) of 103% and a residual activity (ZAP70 (human)) of 97%. For the same compound, the residual activity (CAMK2A (human)) was 102%, the residual activity (ABL2 (human)) was 96.4% and the residual activity (ACVRL1 (human)) was 100%. For the same compound, the residual activity (NEK2 (human)) was 111%, the residual activity (FYN (human)) was 26.9% and the residual activity (MINK1 (human)) was 101%. For the same compound, the residual activity (STK24 (human)) was 91.6%, the residual activity (CDK2 CCNA2 (human)) was 100% and the residual activity (MAPK3 (human)) was 105%. For the same compound, the residual activity (ROCK2 (human)) was 99.3%, the residual activity (FRK (human)) was 72.2% and the residual activity (STK11 (human)) was 93.6%. The residual activity (BRSK1 (human)) was 98.7%, the residual activity [3] was 102% and the residual activity (MERTK (human)) was 51.2%.

`CN(C)S(=O)(=O)c1ccc2c(c1)/C(=C/c1cc3c([nH]1)CCCC3)C(=O)N2` gave a residual activity [1] of 78.1%, a residual activity (DYRK2 (human)) of 103% and a residual activity (STK25 (human)) of 79.6%. For the same compound, the residual activity (NUAK1 (human)) was 10.9%, the residual activity [2] was 11.4% and the residual activity (CAMK2B (human)) was 70%. The residual activity (WNK2 (human)) was 101%, the residual activity (PTK2B (human)) was 52.6% and the residual activity (MAP3K5 (human)) was 106%. For the same compound, the residual activity (PHKG1 (human)) was 72.4%, the residual activity (AKT1 (human)) was 107% and the residual activity (STK10 (human)) was 9.53%. The residual activity (MAPK8 (human)) was 91.1%, the residual activity (FGFR1 (human)) was 71.4% and the residual activity (CLK1 (human)) was 82.6%. For the same compound, the residual activity (DSTYK (human)) was 96%, the residual activity (NEK11 (human)) was 82.5% and the residual activity (GRK7 (human)) was 82.3%. It also gave a residual activity (RPS6KA6 KD1 KD2 (human)) of 67.4%, a residual activity (PAK4 (human)) of 97.6% and a residual activity (MAP4K5 (human)) of 3.08%. The residual activity (ITK (human)) was 61.2%, the residual activity (FGFR3 (human)) was 57.1% and the residual activity (DYRK4 (human)) was 98.2%. For the same compound, the residual activity (MAPK14 (human)) was 98.8%, the residual activity (ZAP70 (human)) was 90% and the residual activity (CAMK2A (human)) was 61.4%. The residual activity (ABL2 (human)) was 56.8%, the residual activity (ACVRL1 (human)) was 102% and the residual activity (NEK2 (human)) was 98%. For the same compound, the residual activity (FYN (human)) was 33.1%, the residual activity (MINK1 (human)) was 83.8% and the residual activity (STK24 (human)) was 47.7%. For the same compound, the residual activity (CDK2 CCNA2 (human)) was 90.6%, the residual activity (MAPK3 (human)) was 102% and the residual activity (ROCK2 (human)) was 88.2%. It also gave a residual activity (FRK (human)) of 86%, a residual activity (STK11 (human)) of 90.4% and a residual activity (BRSK1 (human)) of 32.4%. For the same compound, the residual activity [3] was 94.6% and the residual activity (MERTK (human)) was 20.9%.
